Laboratory results: patent US6392032B1, “Heavily fluorinated sugar analogs” (Board of Regents University of Nebraska-Lincoln, priority 1996, dated 2002)

Experiment: Qualitative solubility in solvents
Format: physicochemical

## OCC12OC(O)C1C(F)(F)C(F)(F)C2(F)F (centres unmarked) [Compound 6, 1-Hydroxy-5-(5′-hydroxymethyl)-2,2,3,3,4,4-hexafluorooxane]
In CHCl3 and other solvents of lower polarity
  Qualitative solubility: insoluble
In acetone, EtOAc, ether, and water
  Qualitative solubility: soluble
